Series [1] deals with T1, Human ACC2 (ACC2 (Nd), N terminal deleted) (Homo sapiens, UniProt O00763).
T1 construct: made in house; host or cells: SF-9 insect cells (baculovirus)
The experiment in a line: Measurement of ACC2 inhibitory activity (malachite green, recombinant ACC2 (Nd)). The class given is biochemical. The conditions noted are these: 10 μM test compound, 20 min preincubation at 30° C., 20 min reaction; for inhibition at 10 µM: read-out: ACC2 inhibitory rate at 10 μM (%). The procedure: The ACC2 inhibitory action of the compound of the present invention was evaluated by the following method.
(1) Cloning of Human ACC2 Gene and Preparation of Recombinant Baculovirus
Human ACC2 gene was cloned by PCR using a human skeletal muscle cDNA library (Clontech) as a template and Primer 1 and Primer 2 shown below. Primer 1 and Primer 2 were prepared by adding SalI, XbaI restriction enzyme recognition sequences based on the information of the base sequence of human ACC2 gene (Genbank Accession U89344).
PCR was performed using Pyrobest DNA polymerase (TAKARA BIO INC.). The obtained PCR product was cloned to pT7 Blue vector (Novagen) and after confirmation of the base sequence, digested with restriction enzymes SalI and XbaI. The obtained DNA fragment was inserted into pFAST-BacHTa (Invitrogen) digested with restriction enzymes Sail and XbaI to give expression plasmid ACC2/pFAST-BacHTa.
A plasmid for expression of ACC2 without a mitochondrial targeting sequence was prepared by PCR using the expression plasmid as a template, and Primer 3 (salI restriction enzyme recognition sequence was added) and Primer 4, which are prepared by reference to the information of human ACC2 gene base sequence (Genbank Accession U89344).
PCR was performed using Pyrobest-DNA polymerase (TAKARA BIO INC.). The obtained PCR product was cloned to pT7 Blue vector (Novagen) and after confirmation of the base sequence, digested with restriction enzymes SalI and Aflil. The obtained DNA fragment was inserted into ACC2/pFAST-BacHTa digested with restriction enzymes SalI and AfilI to give expression plasmid ACC2mito7/pFAST-BacHTa.
Using the expression plasmid ACC2mito7/pFAST-BacHTa and BAC-TO-BAC Baculovirus Expression System (Invitrogen), virus stock BAC-ACC2 of recombinant Baculovirus (N terminal deleted (hereinafter Nd)) was prepared.
(2) Preparation of ACC2 (Nd) Protein
SF-9 cells (Invitrogen) were inoculated to a medium (2 L) for insect cells (Sf-900IISFM medium (Invitrogen) containing 10% fetal bovine serum (Trace), 50 mg/L Gentamicin (Invitrogen), 0.1% Pluronic F-68 (Invitrogen)) at 0.5×10^6 cells/mL, and cultured with shaking in Wave Bioreactor (Wave) at 27° C., 20 rpm, rocking angle 6°, oxygen concentration 30%.
On day 4 of the culture, 3 L of the medium for insect cells was added, the rocking angle was set to 8°, and the cells were further cultured. On day 5 of the culture, 100 mL of recombinant Baculovirus BAC-ACC2 (Nd) was added, 5 L of the medium for insect cells was further added, the rocking angle was set to 11°, and the cells were cultured for 3 days. The culture medium was centrifuged at 1000×g for 10 min to give virus-infected cells. The cells were washed with phosphate buffered saline (Invitrogen) and centrifuged under the same conditions. The obtained cells were cryopreserved at −80° C.
The cryopreserved cells were thawed in ice and suspended in 900 mL of 25 mM HEPES buffer (pH 7.5) containing 10% Glycerol, 0.13 M NaCl, 1 mM EDTA, 25 mM Sodium β-Glycerophosphate and 1 mM Sodium Orthovanadate, and supplemented with Complete Protease Inhibitor (Nippon Boehringer Ingelheim Co., Ltd.). The obtained suspension was homogenized three times in a polytron homogenizer (Kinematica) at 20,000 rpm for 30 sec. The obtained cell disruption solution was clarified by centrifugation at 31000×g for 60 min, and filtered through a 0.45 μm filter. The filtrate was passed through a column packed with 60 mL of Ni-NTA Super Flow Gel (QUIAGEN) at a flow rate of about 5 mL/min. The column was washed with buffer A (50 mM HEPES (pH 7.5) containing 0.3 M NaCl), further washed with buffer A containing 20 mM Imidazole, and eluted with buffer A containing 100 mM Imidazole. The eluate was concentrated with Vivaspin 20 (Vivascience) with a molecular weight cut off of 30K. The obtained concentrate was dialyzed against 50 mM HEPES (pH 7.5) containing 10 mM MgCl2, 2 mM Dithiothreitol, 10 mM Tripotassium Citrate and 0.3 M NaCl. […]

In series [2] the test system is Malonyl-CoA content of femoral muscle. The series can be described thus: Malonyl CoA content measurement in femoral muscle after gavage (LC/MS/MS). The class given is in vivo. The settings on record: male F344/Jcl rats, 10 mg/kg by gavage, femoral muscle 2 hours after dosing; Mean ± S.D.; vehicle 1.955 ± 0.496. The method, then:
Male F344/Jcl rats (CLEA Japan, Inc., Tokyo) purchased at 5 weeks of age were acclimated to the rearing environment, and used for an experiment of malonyl CoA content measurement at 10 weeks of age. In the experiment of malonyl CoA content measurement, the body weight was measured in the morning (8:00-11:00) 3 days before administration of a test compound, and the rats were divided into groups free of dispersion in the body weight between administration groups. The test compound was prepared as a 0.5% methyl cellulose (Wako) suspension to a dose of 5 mL/kg, in the afternoon (12:00-17:00) of one day before administration by gavage, and administered by gavage according to the body weight on the day of test compound administration. The vehicle group was administered with a solvent (0.5% methyl cellulose) alone by gavage. […]
A sample homogenate for the malonyl CoA measurement was prepared by disrupting a frozen tissue with a measured weight in a Multi-beads shocker (MB400U, Yasui Kikai Corporation), adding an extract (6% perchloric acid:aqueous di-n-butylammonium acetate solution (IPC-DBAA, 0.5 mol/L, TOKYO CHEMICAL INDUSTRY CO., LTD.)=1000:1, 500 μL) containing an internal standard substance ([^13C3]-malonyl CoA lithium salt (100 pmol/mL, Sigma-Aldrich)), and applying the mixture to the Multi-beads shocker again. […]

From patent publication US8729102B2, “Bicyclic compound” (Takeda Pharmaceutical Company Limited, priority 2010, dated 2014) come the findings set out here.

T1 sequence (O00763 117-2458 limits assumed, stated change not applied): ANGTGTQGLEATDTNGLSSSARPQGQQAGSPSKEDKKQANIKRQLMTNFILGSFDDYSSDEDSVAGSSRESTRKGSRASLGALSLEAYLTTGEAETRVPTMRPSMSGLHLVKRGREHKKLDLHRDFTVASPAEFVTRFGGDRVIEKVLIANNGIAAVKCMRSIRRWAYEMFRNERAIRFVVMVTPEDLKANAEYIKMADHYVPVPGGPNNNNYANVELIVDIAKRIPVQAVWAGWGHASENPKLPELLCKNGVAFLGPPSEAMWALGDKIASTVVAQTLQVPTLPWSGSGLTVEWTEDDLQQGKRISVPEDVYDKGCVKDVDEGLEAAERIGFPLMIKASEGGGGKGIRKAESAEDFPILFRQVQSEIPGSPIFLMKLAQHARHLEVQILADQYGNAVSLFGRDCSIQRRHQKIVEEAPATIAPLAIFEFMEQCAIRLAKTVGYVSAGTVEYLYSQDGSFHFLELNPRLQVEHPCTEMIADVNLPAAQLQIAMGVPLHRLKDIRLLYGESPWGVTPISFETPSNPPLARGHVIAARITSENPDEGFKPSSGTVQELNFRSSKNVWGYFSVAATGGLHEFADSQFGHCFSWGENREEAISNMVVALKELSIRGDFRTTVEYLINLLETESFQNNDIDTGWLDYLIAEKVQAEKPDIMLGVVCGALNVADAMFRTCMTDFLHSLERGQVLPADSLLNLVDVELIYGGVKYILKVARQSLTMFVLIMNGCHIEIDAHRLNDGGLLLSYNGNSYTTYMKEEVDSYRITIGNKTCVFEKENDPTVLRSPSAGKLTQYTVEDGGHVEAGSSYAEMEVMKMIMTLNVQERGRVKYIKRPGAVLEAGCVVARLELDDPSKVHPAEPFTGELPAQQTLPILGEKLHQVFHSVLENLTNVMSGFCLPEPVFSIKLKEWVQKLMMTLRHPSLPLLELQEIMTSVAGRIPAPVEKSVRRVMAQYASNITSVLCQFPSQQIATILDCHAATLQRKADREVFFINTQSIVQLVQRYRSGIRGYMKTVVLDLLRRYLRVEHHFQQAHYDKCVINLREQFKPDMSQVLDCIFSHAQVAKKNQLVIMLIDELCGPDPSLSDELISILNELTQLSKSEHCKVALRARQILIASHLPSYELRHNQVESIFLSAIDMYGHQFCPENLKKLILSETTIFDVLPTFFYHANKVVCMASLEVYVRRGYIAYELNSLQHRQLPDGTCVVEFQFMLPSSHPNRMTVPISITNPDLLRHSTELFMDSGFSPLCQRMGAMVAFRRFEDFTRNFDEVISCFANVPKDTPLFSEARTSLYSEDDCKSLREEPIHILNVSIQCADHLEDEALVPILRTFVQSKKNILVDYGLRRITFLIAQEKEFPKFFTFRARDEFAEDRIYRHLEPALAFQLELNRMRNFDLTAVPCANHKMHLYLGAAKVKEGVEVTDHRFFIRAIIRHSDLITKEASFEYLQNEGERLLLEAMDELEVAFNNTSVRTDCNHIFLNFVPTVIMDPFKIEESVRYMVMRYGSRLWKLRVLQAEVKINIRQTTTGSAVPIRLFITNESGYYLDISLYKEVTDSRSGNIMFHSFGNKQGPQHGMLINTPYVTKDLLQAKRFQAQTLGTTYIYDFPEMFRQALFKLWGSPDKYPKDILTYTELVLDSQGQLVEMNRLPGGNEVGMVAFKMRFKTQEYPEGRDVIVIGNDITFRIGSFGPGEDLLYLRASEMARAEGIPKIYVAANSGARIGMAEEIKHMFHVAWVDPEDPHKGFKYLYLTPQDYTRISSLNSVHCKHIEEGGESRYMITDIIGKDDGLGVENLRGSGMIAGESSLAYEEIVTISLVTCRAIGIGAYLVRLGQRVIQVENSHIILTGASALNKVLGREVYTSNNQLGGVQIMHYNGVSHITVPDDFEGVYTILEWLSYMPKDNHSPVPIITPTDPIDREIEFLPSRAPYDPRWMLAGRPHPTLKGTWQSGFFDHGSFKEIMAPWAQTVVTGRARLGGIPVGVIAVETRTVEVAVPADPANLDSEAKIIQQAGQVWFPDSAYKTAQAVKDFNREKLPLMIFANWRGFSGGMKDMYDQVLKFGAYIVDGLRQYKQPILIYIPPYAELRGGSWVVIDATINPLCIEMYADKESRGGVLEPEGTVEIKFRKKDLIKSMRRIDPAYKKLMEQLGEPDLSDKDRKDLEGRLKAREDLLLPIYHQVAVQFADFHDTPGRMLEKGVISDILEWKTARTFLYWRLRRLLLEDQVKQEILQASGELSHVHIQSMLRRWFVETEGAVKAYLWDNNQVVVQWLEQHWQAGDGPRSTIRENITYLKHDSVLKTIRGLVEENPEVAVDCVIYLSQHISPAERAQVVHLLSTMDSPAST

Broadly, the melting point is the temperature of the solid-liquid transition. Molecule `CC(=O)N[C@@H](C)COc1ccc(-c2nc3ccc(OCC4CC4)cc3o2)nc1` [Example 1, N-[(1S)-2-({6-[6-(cyclopropylmethoxy)-1,3-benzoxazol-2-yl]pyridin-3-yl}oxy)-1-methylethyl]acetamide] showed a melting point of 179 to 180 °C. The inhibition at 10 µM in series [1] was 101%.

Turning to `CCOc1ccc2nc(-c3ccc(OC[C@H](C)NC(C)=O)cn3)oc2c1` [Example 28, N-[(1S)-2-{[6-(6-ethoxy-1,3-benzoxazol-2-yl)pyridin-3-yl]oxy}-1-methylethyl]acetamide], in series [1], the inhibition at 10 µM worked out at 83%. Besides, the “malonyl-CoA (nmol/g-tissue), Malonyl-CoA content of femoral muscle at 2 hours after dosing” value in series [2] stood at 0.663 ± 0.119 nmol/g-tissue.

As for `CC(=O)N[C@@H](C)COc1cnc(-c2nc3ccc(OCC4CC4)cc3o2)c(F)c1` [Example 6, N-[(1S)-2-({6-[6-(cyclopropylmethoxy)-1,3-benzoxazol-2-yl]-5-fluoropyridin-3-yl}oxy)-1-methylethyl]acetamide], the melting point lay within 158 to 159 °C. For the same molecule, in series [1], the inhibition at 10 µM is 95%. For the same molecule, in series [2], the “malonyl-CoA (nmol/g-tissue), Malonyl-CoA content of femoral muscle at 2 hours after dosing” value is listed as 0.513 ± 0.048 nmol/g-tissue.

As to `CC(=O)N[C@@H](C)COc1cc(-c2nc3cc(OCC4CC4)ccc3o2)on1` [Example 2, N-[(1S)-2-({5-[5-(cyclopropylmethoxy)-1,3-benzoxazol-2-yl]isoxazol-3-yl}oxy)-1-methylethyl]acetamide], the melting point fell in the range of 156 to 157 °C. For the same molecule, in series [1], the inhibition at 10 µM came out at 92%.

For the molecule `C[C@@H](COc1ccc(-n2cc3ccc(OCC4CC4)cc3n2)cc1)NC(=O)N(C)C` [Example 63, 3-[(1S)-2-{4-[6-(cyclopropylmethoxy)-2H-indazol-2-yl]phenoxy}-1-methylethyl]-1,1-dimethylurea], the inhibition at 10 µM in series [1] amounted to 93%.

With `C[C@@H](COc1cnc(-c2nc3ccc(OCC4CC4(F)F)cc3o2)c(F)c1)NC(N)=O` (stereo partly drawn) [Example 111, Diastereomer of 1-{(1S)-2-[(6-{6-[(2,2-difluorocyclopropyl)methoxy]-1,3-benzoxazol-2-yl}-5-fluoropyridin-3-yl)oxy]-1-methylethyl}urea (retention time: short)], the “ACC2 inhibitory rate at 10 μM (%)” value in series [1] (10 µM) came out at 100%.

Turning to `CC(=O)N[C@@H](C)COc1cc(-c2nc3cc(OC(C)C)ccc3o2)on1` [Example 33, N-[(1S)-1-methyl-2-({5-[5-(1-methylethoxy)-1,3-benzoxazol-2-yl]isoxazol-3-yl}oxy)ethyl]acetamide], the inhibition at 10 µM in series [1] was 85%.
